Test results published in patent US20070265196A1, “Method of Modulating Pro-Inflammatory and Inflammatory Activity Mediated by C-Reactive Protein” (MEDVET SCIENCE PTY., LTD., priority 2004, published 2007).
Entries after “also recorded” stand apart in the source; their conditions may differ.

How the values were obtained:
[1] = test system: C-reactive protein-induced expression of E-selectin, VCAM-1 and ICAM-1; assay: Inhibition of C-reactive protein-induced cell-surface adhesion molecule expression in HUVEC (flow cytometry); assay type: cell-based, human; conditions: for effect on C-reactive protein-induced expression of adhesion molecules (E-selectin, ICAM-1, VCAM-1): 16 hrs preincubation in serum-free medium, then C-reactive protein 10 μg/ml for 5 hrs; for effect of antioxidant on PLPC-dependent inhibition of C-reactive protein-induced E-selectin expression: HUVEC preincubated 16 hrs with 35 μM PLPC in presence of the antioxidant
Protocol: (§1) Human umbilical vein endothelial cells (HUVEC) and bovine aortic endothelial cells (BAEC) were isolated and cultured as described previously (Wall et al (1978)). Cells were used at passages 2 to 3 for HUVEC and passages 3-10 for BAEC. For detection of adhesion molecules, HUVEC were incubated overnight in Opti-MEM serum free medium (Gibco, Invitrogen Corporation) in the presence or absence of HDL and then treated with recombinant human C-reactive protein (Calbiochem) for 5 hrs unless indicated otherwise. After the treatment, cells were washed with medium M199 and incubated with primary monoclonal antibodies against E-selectin, VCAM-1, ICAM-1 or isotype-matched nonrelevant control antibodies for 30 min as described previously (Gamble et al (1993)). Cells were then incubated with fluorescein isothiocyanate-conjugated secondary antibody for 30 min. The cells were then harvested by trypsinization and fixed in 2.5% formaldehyde (antibody binding prior to trypsinizing has been reported to prevent the partial hydrolyzation of the surface adhesion molecules (Grabner et al (2000))). The expression of cell-surface adhesion molecules was measured as fluorescence intensity by use of a Coulter Epics Profile XL flow cytometer. Unless stated otherwise, the results represent mean fluorescence of the positive population±SEM from one experiment and are representative at least three independent experiments. Differences between means were evaluated by Student's t-tests. ANOVA was used to identify statistical significance of multiple comparisons.
As described previously (Ashby et al (1998)) the lipoproteins were isolated from normal healthy adult donors by sequential ultracentrifugation in their appropriate density range: total HDL 1.07<d<1.21 and LDL 1.019<d<1.055 g/ml. The resulting preparations of lipoproteins were dialyzed against endotoxin-free PBS (pH 7.4) prior to use. Discoidal reconstituted HDL containing apoA-I and PLPC, were prepared by the cholate dialysis method described by Matz (1982). Small unilamellar vesicles (SUVs) containing either PLPC or 1-palmitoyl-2-oleoyl-sn-glycero-3-phosphocholine (POPC), in butylated hydroxytoluene (BHT) (molar ratio of PC to BHT, 10:1), were prepared in PBS precisely as described by Jonas (1986). Oxidation of SUV was produced by incubation with 5 μM CuSO4 in the absence of BHT for 48 hours at 37° C.

[2] = test system: HUVEC expression of E-selectin, VCAM-1 and ICAM-1; assay: Induction of adhesion molecule expression in HUVEC by the substance itself (flow cytometry); assay type: cell-based, human; conditions: for effect of heating at 65° C. for 1 hour on activity (E-selectin induction): heated 65° C., serum free medium
Protocol: as §1

[3] = test system: adherence of U937 cells to C-reactive protein-activated BAEC; assay: Adherence of U937 cells to C-reactive protein-treated BAEC; assay type: cell-based, bovine; conditions: BAEC incubated with C-reactive protein for 24 hours
Protocol: U937 cells (CRL 1593.2; ATCC) were colorimetrically labelled with 0.2 mg/ml 3-(4,5-dimethylthiazol-2-yl)-2,5-diphenyltetrazolium bromide (MTT; Promega) in normal culture medium for 30 min at 37° C. The cells were collected by low-speed centrifugation and resuspended at a density of 2×10^5 cells/ml in medium without FCS. BAECs were seeded into 24-well plates and treated as desired in triplicate. After the treatment, BAECs were washed twice with RPMI-1640 medium. The MTT-labelled U937 cell suspension (200 μl/well) was then added into the BAEC cultures and incubated for 30 min at 37° C. Non-adherent cells were removed by rinsing the plates three times with PBS, and the number of adherent cells was counted under microscopy at least 4 fields per well.

“lipid-free apoA-I: lipid-free apolipoprotein A-I, the protein component of rHDL” was tested, and the “effect on C-reactive protein-induced expression of adhesion molecules (E-selectin, ICAM-1, VCAM-1)” value ([1]; HUVEC) was “had no effect”.
In the case of `CCCCC/C=C\C/C=C\CCCCCCCC(=O)OC(COC(=O)CCCCCCCCCCCCCCC)COP(=O)([O-])OCC[N+](C)(C)C` (stereo not drawn) [PLPC], the “effect of the substance alone on adhesion molecule expression” value ([2]; HUVEC) is reported as “had no effect”, the “C-reactive protein-induced E-selectin expression, substance added simultaneously with C-reactive protein” value ([1]; HUVEC, 35 μM, C-reactive protein 10 μg/ml 5 hrs, no pre-incubation) is reported as “not” and the “inhibitory effect on C-reactive protein-induced adhesion molecule expression after 1-hour pre-incubation” value ([1]; HUVEC, 1-hour pre-incubation) is reported as “no inhibitory effect”. For the same molecule, the “inhibitory effect on C-reactive protein-induced adhesion molecule expression when added simultaneously with C-reactive protein” value ([1]; HUVEC, no pre-incubation) was “no inhibitory effect” and the “persistence of inhibitory effect when removed from the medium after 16-hour pre-incubation before C-reactive protein activation” value ([1]; HUVEC, washout) was “did not persist”.
In the case of `CCCCCCCC/C=C\CCCCCCCC(=O)O[C@H](COC(=O)CCCCCCCCCCCCCCC)COP(=O)([O-])OCC[N+](C)(C)C` [POPC SUVs, 1-palmitoyl-2-oleoyl-sn-glycero-3-phosphocholine], the “effect on C-reactive protein-induced expression of adhesion molecules (E-selectin, ICAM-1, VCAM-1)” value ([1]; HUVEC) is reported as “no inhibitory effect” and the “effect of CuSO4-exposed phospholipid on C-reactive protein-induced adhesion molecule expression” value ([1]; HUVEC, control exposed to CuSO4) is reported as “did not affect”.
With `CCCCCCCCCCC[C@@H](C[C@@H]1OC(=O)[C@H]1CCCCCC)OC(=O)[C@H](CC(C)C)NC=O` [tetrahydrolipstatin] the “effect of lipase inhibitor treatment of cells on the anti-inflammatory activity of PLPC” value ([1]; HUVEC) was “not affected”.
For `CC(Cc1ccc(O)c(O)c1)C(C)Cc1ccc(O)c(O)c1` (stereo not drawn) [nordihydroguaiaretic acid], the “effect of antioxidant on PLPC-dependent inhibition of C-reactive protein-induced E-selectin expression” value [1] was “reversed in a dose-dependent manner” and the “effect of antioxidant on PLPC-dependent inhibition of C-reactive protein-induced E-selectin expression” value ([1]; listed as NDGA) was “completely abolish”.
For `C[N+](C)(C)CCOP(=O)(O)O` [phosphorylcholine], the “effect on the C-reactive protein's activity” value ([1]; up to 100 μM added to the medium) was “had no effect”.
In the case of “C-reactive protein: recombinant human C-reactive protein (Calbiochem), proinflammatory stimulus”, the “concentration at which dose-dependent activity reaches a maximum” value ([2]; E-selectin expression, HUVEC stimulated 5 hrs) is reported as 10 to 20 µg/mL, the “cell surface expression of E-selectin VCAM-1 and ICAM-1” value ([2]; HUVEC treated with C-reactive protein (10 μg/ml, 5 hrs)) is reported as “significant increase” and the “inflammatory effect in fresh serum-free medium” value ([2]; HUVEC, fresh (unconditioned) serum-free medium) is reported as “no inflammatory effect”. The “effect of heating at 65° C. for 1 hour on activity (E-selectin induction)” value ([2]; HUVEC) was “completely eliminated” and the “increase in adhesion of U937 cells to BAEC” value [3] was “more than 6 fold”.
With `Cc1c(C)c2c(c(C)c1O)CC[C@@](C)(CCC[C@H](C)CCC[C@H](C)CCCC(C)C)O2` [α-tocopherol] the “effect of the substance alone on adhesion molecule expression” value ([2]; HUVEC) was “had no effect” and the “effect of antioxidant on PLPC-dependent inhibition of C-reactive protein-induced E-selectin expression” value [1] was “reversed in a dose-dependent manner; also recorded: completely abolish”.
Lipopolysaccharide [LPS] was tested, and the “induction of adhesion molecule expression” value ([2]; HUVEC, concentrations of up to 1 ng/ml) was “insufficient to induce” and the “effect of heating at 65° C. for 1 hour on activity (E-selectin induction)” value ([2]; HUVEC) was “did not alter”.
